Measured values reported in patent publication US20260315372A1, “INJECTABLE PHARMACEUTICAL FORMULATIONS” (priority 2023, published 2026).
Read-outs that look alike come from different tables or passages of the source.

Tests used:
[1] = dog, in vivo, sc
5-HT2A receptor = conditions: cited from earlier work
[2] = tested on: 5-hydroxytryptamine-(5-HT)1A; conditions: cited from earlier work
5-HT2A = conditions: cited from earlier work
5-HT2C = conditions: cited from earlier work
[3] = tested on: serotonin transporter (SERT); conditions: cited from earlier work
[4] = tested on: trace amine-associated receptors (TAARs); conditions: cited from earlier work
sigma-1 receptor = conditions: cited from earlier work
[5] = in vivo; cited from earlier work
in vivo [6] = conditions: dog, sc, 0.5 mg/kg; for Vd/F: Vz/F (mean)
[7] = cited from earlier work
in vivo [8] = experiment: in vivo; set-up: species or system male Beagle dogs; conditions: dog
From the text: A: Proof of Concept—Pharmacokinetics (PK) of DMT-d10 in Male Beagle Dogs Following Subcutaneous Administration in Saline or Sodium Hyaluronate
The objective of this study was to determine if a 1% (w/v) sodium hyaluronate formulation could modify the SC release of DMT-d10 compared to 0.9% (w/v) saline formulation.
Animals. Three, non-naïve, male Beagle dogs aged ca 2-5 years and weighing 10-15 kg at dosing were supplied by Charles River for use on this study and were bred for use in scientific procedures. The animal work in this study was conducted under the UK Home Office Project License No. PPL PP9376768, Pharmacokinetics of Pharmaceuticals. This was a cross-over design study to reduce the number of dogs in use and as well as decrease interindividual variability.
Housing. Animals were uniquely identified by microchip and tattoo in this study. During pre-trial and on-study periods, the animals were group housed in caging appropriate to the species. The animals were housed singly for up to 4 h per day and during this time had access to their daily ration of diet.
IPS 5007 diet was provided as a daily ration throughout the study. A 350 g ration of feed per dog was provided once daily, except during designated procedures. On the morning of dosing (pre-dose), the animals were deprived from their daily food allowance until 2 h post dose. Mains quality tap water was available ad libitum. Details of diet and water are maintained at the test facility.
(§1) Prior to acceptance for use on study, animals were subject to an examination and the results found to be satisfactory. All animals were weighed prior to each dose administration and the bodyweights recorded. Animals were checked regularly throughout the duration of the study. Any clinical signs were closely monitored and recorded.
Test Items. DMT-d10 fumarate was formulated as a solution in 0.9% (w/v) saline, pH 5.5-6 (control) or in 1% (w/v, nominal) sodium hyaluronate in water for injection (WFI) (Formulation 28) at a free base concentration of 0.4 mg/mL (nominal) for SC injection. Each test item was prepared on the morning of dose administration and stored at ambient temperature, protected from light, until dosing.
Control (0.9% w/v saline): On the day prior to dosing, DMT-d10 fumarate was removed from storage (frozen, in a freezer set to maintain ≤−20° C., protected from light) and allowed to equilibrate to room temperature. Using a precision analytical balance, 9.7 mg of DMT-d10 fumarate was weighed into a 20 mL headspace vial which was pre-calibrated to a final volume of 15 mL with a magnetic stir bar inside. The weighed API was returned to storage. On the morning of dosing, the weighed API was removed from storage and allowed to equilibrate to room temperature. 13.55 mL of vehicle (0.9% w/v saline) was added to the vial (equivalent to 90% of final volume) and set to magnetically stir for ca 35 minutes. Using a calibrated pH meter, the solution pH was measured. […] The solution was made to final volume of 15 mL, using the pre-calibrated line, with 0.9% w/v saline. The final pH was recorded as 5.53. The solution was then filtered using a […] PVDF syringe filter in the laminar air flow cabinet (LAFC). The visual appearance of the solution was recorded as a clear, colorless, homogenous solution. […] The control solution was protected from light at all times.
Formulation 28: On the morning of dosing, DMT-d10 fumarate was removed from storage (frozen, in a freezer set to maintain ≤−20° C., protected from light) and allowed to equilibrate to room temperature. Using a precision analytical balance, 11.02 mg of DMT-d10 fumarate was weighed into a 20 mL headspace vial containing a magnetic stir bar. 3.5 mL of WFI was added to the vial and set to stir, making a stock solution with a free base concentration of 2 mg/mL (nominal) DMT-d10. Once homogenous, 2 mL of the stock solution was dispensed into a vial containing 8 mL of 1.25% (w/v, nominal) sodium hyaluronate and vortex mixed until homogenous. […]

[9] = set-up: species or system male Beagle dogs; conditions: dog, in vivo, sc, 1 mg/kg
Protocol: D: Dose Concentration and Dose Volume—Pharmacokinetics of DMT-d10 in Male Beagle Dogs Following Subcutaneous Administration at 1 mg/kg Formulated in Hyaluronic Acid Concentrations at Higher Dosing Solution Concentrations and Lower Dosing Volume
The objective of this study was to determine the effect of increasing the dosing solution concentration of DMT-d10 and decreasing the dose volume on the SC release of DMT-d10 into the systemic circulation. This study was conducted using the same CRO, housing, and materials as described above in part A. All conditions described in part A pertain to this study with the exceptions noted below.
Test Items. […]
[…]. Once homogeneous, the density was measured to be 1.000 g/cm^3. […] The visual appearance was recorded as a clear/yellowish homogenous solution at this stage. The pH was measured using a calibrated pH meter and recorded to be 3.24. […] The density was measured to be 1.012 g/cm^3. […]
[…]. The density of the resultant 0.8% (w/v, nominal) sodium hyaluronate solution was recorded to be 1.002 g/cm^3. […] The final visual appearance of the formulation was recorded as a clear, colorless, homogenous solution.
(§2) Subcutaneous injections. […] Appropriate volumes of dose were calculated per each animal based on real animal bodyweights and a target dose volume of 0.05 mL/kg or 0.25 mL/kg. […]

[10] = set-up: species or system male Beagle dogs; conditions: dog, in vivo, sc
Protocol: as §1
Subcutaneous injections. The target dose was 0.1 mg/kg, free base at a dose concentration of 0.4 mg/mL. Appropriate volumes of dose were calculated per each animal based on real animal bodyweights and a target dose volume of 0.25 mL/kg. The volumes were pulled into plastic Troge 2.5 mL syringes. Animals were identified by microchip and tattoo. […]
Subcutaneous injections. […] Appropriate volumes of dose were calculated per each animal based on real animal bodyweights and a target dose volume of 0.25 mL/kg. […]
as §2
Subcutaneous injections. DMT+DMT-d10 were co-dosed (via Formulation 35) at 0.5 mg/kg/analyte, total dose of 1.0 mg/kg (free base), each at a dose concentration of 10 mg/mL (nominal), total dose concentration of 20 mg/mL (nominal) and a dose volume of 0.05 mL/kg calculated per each animal based on real animal bodyweights. […]

Question: What does the source list for `CN(C)CCc1c[nH]c2ccccc12` [DMT, 2-(1H-indol-3-yl)-N,N-dimethylethan-1-amine]?
Answer: plasma concentrations quantifiable to [1]: ≤ 2 h; agonism at the 5-HT2A receptor (5-HT2A receptor): potent agonist; binding to 5-HT1A [2]: binds with affinity; binding to 5-HT2A (5-HT2A): binds with affinity; binding to 5-HT2C (5-HT2C): binds with affinity; binding to SERT [3]: binds with affinity; binding to TAARs [4]: binds to other receptors; binding to sigma-1 receptor (sigma-1 receptor): binds to other receptors; therapeutically relevant psychedelic dose [5]: ≥ 70 mg; AUC(0-inf) (in vivo [6]): 0.0487 µg·h/mL; CL/F (in vivo [6]): 10.4 L/h/kg; Cmax (in vivo [6]): 0.0581 µg/mL; MRT inf (in vivo [6]): 52 min; Tmax (in vivo [6]): 30 min; half-life (in vivo [6]): 32 min; Vd/F (in vivo [6]): 7.59 L/kg; oral activity ([7]; in vivo, po): not orally active

Question: Which results are given for `[2H]C([2H])([2H])N(C([2H])([2H])[2H])C([2H])([2H])C([2H])([2H])c1c[nH]c2ccccc12` [DMT-d10, 2-(1H-indol-3-yl)-N,N-bis(methyl-d3)ethan-1-amine-1,1,2,2-d4]?
Answer: dose proportionality of Cmax and AUCinf (in vivo [8]): increased in a dose proportional manner; plasma DMT-d10 concentrations quantifiable up to (in vivo [8]): up to 4 hours; MRT inf (in vivo [8]; sc): ~90 min; Tmax (in vivo [8]; sc): 30 to 45 min; half-life (in vivo [8]; sc): ~54 min; plasma DMT-d10 concentrations quantifiable up to (in vivo [8]; sc): up to 4 hours; plasma DMT-d10 concentrations quantifiable up to [9]: up to 4 hours; adverse reactions to the administration [10]: No adverse reactions; clinical signs post-dose [10]: Mild, transient clinical signs; decrease of apparent clearance (Cl/F) by deuteration [1]: 2.2 ×; decrease of apparent volume of distribution (Vz/F) by deuteration [1]: 1.6 ×; increase of AUCinf by deuteration [1]: 2.2 ×; increase of Cmax by deuteration [1]: 1.3 ×; increase of MRTinf by deuteration [1]: 1.4 ×; increase of t1/2 by deuteration [1]: 1.4 ×; plasma concentrations quantifiable to [1]: ≤ 4 h; Vz/F (mean) ([1]; 0.5 mg/kg): 4.72 L/kg; AUC(0-inf) (in vivo [6]): 0.109 µg·h/mL; CL/F (in vivo [6]): 4.65 L/h/kg; Cmax (in vivo [6]): 0.0756 µg/mL; MRT inf (in vivo [6]): 73.8 min; Tmax (in vivo [6]): 30 min; half-life (in vivo [6]): 43.3 min; Vd/F (in vivo [6]): 4.73 L/kg

Question: Which oral bioavailability ([7]; oral) does the source give for `COc1ccc2[nH]cc(CCN(C)C)c2c1` [Formulation 5-MeO-DMT, 5-methoxy-N,N-dimethyltryptamine] here?
Answer: lacks oral bioavailability
